The test system of the test is T1, horseradish peroxidase (HRP).
T1 construct: gene PRXC1A; natural HRP
Kind of test: steady-state kinetics, Michaelis-Menten fit, absorbance of oxidised TMB ([…] nm). It counts as biochemical, Armoracia rusticana. The conditions noted are these: co-substrate H2O2; acetate buffer pH 3.6 (printed for the nanozyme assay).

Each structure is given as a SMILES string.

A word on the Km: it is the substrate concentration at which the rate is half of its maximum.

`Cc1cc(-c2cc(C)c(N)c(C)c2)cc(C)c1N` [3,3′,5,5′-tetramethylbenzidine]: the Km is 427 µM.

(Values after paper PMC7592081, “Single-Atom Nanozymes Linked Immunosorbent Assay for Sensitive Detection of Aβ 1-40: A Biomarker of Alzheimer's Disease” (Research, 2020).)
